Measurements: patent US20030044413A1, “Methods of limiting apoptosis of cells” (Regents of the University of Minnesota, priority 1998, published 2003)
Like-named read-outs stand apart in the source and are kept apart here.

Columns and labels:
[1] = tested on: cytochrome c; assay: Cytochrome c content of cytosol and mitochondria of rat hepatocytes; format: cell-based; conditions: Hepatocyte, hepatocytes with DCA, TGF-β1 or okadaic acid, 100 μM UDCA
Procedure: Isolation of cytosol and mitochondrial fractions and determination of cytochrome c and Bax content. Freshly isolated rat hepatocytes were cultured for 3 hours as described above and then incubated with William's medium supplemented with either 50 μM of DCA for 4 h, 1 nM TGF-β1 for 24 h and […] okadaic acid for 16 h, in the presence or absence of 100 μM UDCA, or no addition (control). Time-course experiments were also performed. Cells (1.0×10^7/ml) were harvested by centrifugation at 600×g for 5 min at 4° C. The cell pellets were washed once in ice-cold PBS and resuspended with 3 volumes of isolation buffer containing 20 mM Hepes-KOH, pH 7.5, 10 mM KCl, 1.5 mM MgCl2, 1 mM sodium EDTA, 1 mM sodium EGTA, 1 mM dithiothreitol (DTT), suplemmented with the COMPLETE protease inhibitor cocktail (Boehringer Mannheim Biochemicals, Inc., Indianapolis, Ind.) in 250 mM sucrose. After chiling on ice for 15 min, the cells were disrupted by 40 stokes of a glass homogeneizer and the homogenates were centrifuged twice at 2,500×g for 10 min at 4° C. to remove unbroken cells and nuclei. The mitochondria were pelleted by centrifugation at 12,000×g for 30 min at 4° C., resuspended in isolation buffer containing 250 mM sucrose and frozen at −80° C. […]

[2] = tested on: calcein-loaded isolated rat liver mitochondria; assay: MPT fluorimetric assay (calcein release)
Procedure: The fluorimetric assay was performed after loading the mitochondria with 10 μM calcein-acetoxymethyl ester (AM) (Molecular Probes Inc., Eugene, Oreg.) for 30 min at 37° C. in chelex-100 treated resuspension buffer before purification by sucrose-percoll gradient centrifugation (Botla et al., J. Pharmacol. Exp. Ther., 272, 930-938 (1995)). The assays were performed using calcein-loaded isolated mitochondria (1 mg protein/ml) in chelex-100-treated respiration buffer at 37° C. For the coincubation assays, the samples were preincubated for 10 min with 500 μM UDCA prior to addition of 200 μM DCA. The fluorescence of calcein was monitored by excitation and emission wavelengths of 490 nm and 515 nm, respectively, using a Perkin-Elmer luminescence spectrometer model LS-5B (Perkin-Elmer Ltd., Buckinghamshire, England).

[3] = Bile acid quantification by gas chromatography in HuH-7 cells; format: in vitro ADME, human; conditions: 6 h
Procedure: In parallel experiments, isolated rat hepatocytes (2×10^7 cells) and HuH-7 cells (2×10^6 cells) were incubated with 50 μM or 100 μM, respectively, of DCA, UDCA or DCA+UDCA for 6 h. Cells were washed 3 times with PBS, pH 7.4, harvested, centrifuged at 800×g for 5 min in a JS-4.0 Beckman rotor (Beckman Instruments, Inc., Schaumburg, Ill.) at 4° C., washed again, and the final pellet was flash-frozen in liquid nitrogen. Cells were then analyzed for intracellular bile acid concentrations by gas chromatography.
Bile acid quantification by gas chromatography. […] Quantification of bile acids was achieved using gas chromatography, by comparing the peak height response of the individual bile acids with the peak height response obtained from the internal standard, nordeoxycholic acid, which was added to each sample prior to bile acid extraction.

[4] = tested on: PARP; assay: PARP cleavage in rat hepatocytes; format: cell-based; conditions: pretreatment with UDCA; DCA, TGF-β1 or okadaic acid
Description: Determination of PARP cleavage. For the determination of PARP cleavage, total protein were separated on a 8% SDS-polyacrylamide electrophoresis gel. Blots were probed with primary polyclonal antibody to PARP (Santa Cruz Biotechnology).

[5] = coincubation with 100 μM DCA and UDCA
[6] = incubated with 100 μM of the individual bile acid

| Compound | inhibition at 100 µM ([1]; read-out: inhibition of cytochrome c depletion from the mitochondria) [%] | inhibition at 100 µM ([1]; read-out: inhibition of cytochrome c release to the cytosol) [%] | inhibition at 500 µM ([2]; Rattus norvegicus, 200 μM DCA, 500 μM UDCA pretreatment 10 min, read-out: inhibition of DCA-induced calcein release) [%] | intracellular concentration of the bile acid [3, 5] [nmol] | intracellular concentration of the bile acid [3, 6] [nmol/10^8cells] | prevention of PARP cleavage [4] [%] | effect on DCA-induced calcein release ([2]; 500 μM HDCA pretreatment) |
| --- | --- | --- | --- | --- | --- | --- | --- |
| C[C@H](CCC(=O)O)[C@H]1CC[C@H]2[C@@H]3[C@@H](O)C[C@@H]4C[C@H](O)CC[C@]4(C)[C@H]3CC[C@]12C [UDCA, ursodeoxycholic acid] | 70 | 60 | ~50 | 45.5 ± 21.5 | 204.7±97.2 | 60 | – |
| C[C@H](CCC(=O)O)[C@H]1CC[C@H]2[C@@H]3C[C@H](O)[C@@H]4C[C@H](O)CC[C@]4(C)[C@H]3CC[C@]12C [hyodeoxycholic acid] | – | – | – | – | – | – | did not decrease DCA-induced mitochondrial swelling (FIG. 8B) or prevent calcein release |
| C[C@H](CCC(=O)O)[C@H]1CC[C@H]2[C@@H]3CC[C@@H]4C[C@H](O)CC[C@]4(C)[C@H]3C[C@H](O)[C@]12C [DCA, deoxycholic acid] | – | – | – | 31.7 ± 15.0 | 28.8±13.3 | – | – |
